Experimental data published in publication PMC10706420, “A New Drug Discovery Platform: Application to DNA Polymerase Eta and Apurinic/Apyrimidinic Endonuclease 1” (International Journal of Molecular Sciences, 2023).
Where two headings read alike, the source gives them in different places.

Assays:
APE1 = biological target: T1, APE1 (Homo sapiens, UniProt P27695); assay: in-house high-throughput in vitro biochemical assay for APE1 endonuclease activity (fluorescence-based)
T1 construct: made in house

Endonuclease IV = Endonuclease IV (Escherichia coli, UniProt P0A6C1); settings: from IC50 for APE1 and EndoIV

T1 sequence (P27695 whole entry): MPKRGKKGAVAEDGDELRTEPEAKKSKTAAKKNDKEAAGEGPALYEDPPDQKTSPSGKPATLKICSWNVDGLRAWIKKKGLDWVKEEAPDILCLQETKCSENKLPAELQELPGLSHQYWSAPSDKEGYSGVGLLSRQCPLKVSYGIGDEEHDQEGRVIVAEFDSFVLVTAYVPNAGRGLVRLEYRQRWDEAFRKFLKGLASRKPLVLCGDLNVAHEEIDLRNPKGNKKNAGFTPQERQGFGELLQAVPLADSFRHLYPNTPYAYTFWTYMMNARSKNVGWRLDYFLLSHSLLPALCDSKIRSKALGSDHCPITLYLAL

CC(=O)Nc1sc2c(c1-c1nc3ccccc3s1)CCN(C(C)C)C2 [Inhibitor III]
IC50 (APE1): 2000 nM | IC50 (APE1; listed as APE1 Inhibitor III): ~2000 nM | selectivity for APE1 over EndoIV (Endonuclease IV): 3 fold
